We go through twelve compounds from patent US20260297060A1, “COMPOUNDS FOR THE DEGRADATION OF MUTANT BRAF” (C4 THERAPEUTICS, INC., priority 2023, published 2026).

Like-named read-outs stand apart in the source and are kept apart here. A value given as a limit tells only on which side of the number the result lay.

This assay addresses T1, BRAF V600E (Homo sapiens, UniProt P15056+Q96SW2, V600E).
T1 construct: knock-in of the HiBiT tag to the endogenous BRAF V600E locus; host or cells: A375.10 (A375 clonal line, CRISPR HiBiT knock-in at the endogenous BRAF V600E locus)
As to the kind of experiment: BRAF V600E HiBiT Degradation Assay. The format is cell-based. The procedure, abridged:
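Endogenous HiBiT knock-in on BRAF V600E in A375 cells (clone A375.10); 11-point half-log series, top 10 μM, 2, 6 or 24 h at 37° C. Lytic HiBiT luminescence, background-subtracted, normalized to DMSO; 4-parameter fit gives DC50, Emax (residual protein) and IP (inflection point).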
(HiBiT is a short tag that completes a luciferase, so light tracks the accessible tagged protein.)

[1] abbreviates: A375.10 cells, BRAF V600E, 2 hours, inflection point, read-out: HiBiT-Degradation A375.10 BRAF 2 hours IP.
The mark [2] stands for this setting: A375.10 cells, BRAF V600E, 2 hours, read-out: HiBiT-Degradation A375.10 BRAF 2 hours DC50.
Setting [3] is: A375.10 cells, BRAF V600E, 2 hours, residual protein remaining, read-out: HiBiT-Degradation A375.10 BRAF 2 hours Emax.
Where [4] appears, read: A375.10 cells, BRAF V600E, 6 hours, inflection point, read-out: HiBiT-Degradation A375.10 BRAF 6 hours IP.
Setting [5] is: A375.10 cells, BRAF V600E, 6 hours, read-out: HiBiT-Degradation A375.10 BRAF 6 hours DC50.
Setting [6] is: A375.10 cells, BRAF V600E, 6 hours, residual protein remaining, read-out: HiBiT-Degradation A375.10 BRAF 6 hours Emax.
Setting [7] is: A375.10 cells, HiBiT, BRAF V600E, 24 hours, read-out: HiBiT-Degradation A375.10 BRAF 24 hours DC50.
The mark [8] stands for this setting: A375.10 cells, HiBiT, BRAF V600E, 24 hours, read-out: HiBiT-Degradation A375.10 BRAF 24 hours Emax.
Setting [9] is: A375.10 cells, HiBiT, BRAF V600E, 24 hours, read-out: HiBiT-Degradation A375.10 BRAF 24 hours IP.
Setting [10] is: A375.10 cells, BRAF V600E, 6 hours, residual protein remaining.
[11] abbreviates: A375.10 cells, HiBiT, BRAF V600E, 24 hours.
[12] abbreviates: read-out: HiBiT-Degradation A375.10 BRAF 2 hours Emax, A375.10 cells, BRAF V600E, 2 hours, residual protein remaining.

T1 sequence (P15056 whole entry V600E): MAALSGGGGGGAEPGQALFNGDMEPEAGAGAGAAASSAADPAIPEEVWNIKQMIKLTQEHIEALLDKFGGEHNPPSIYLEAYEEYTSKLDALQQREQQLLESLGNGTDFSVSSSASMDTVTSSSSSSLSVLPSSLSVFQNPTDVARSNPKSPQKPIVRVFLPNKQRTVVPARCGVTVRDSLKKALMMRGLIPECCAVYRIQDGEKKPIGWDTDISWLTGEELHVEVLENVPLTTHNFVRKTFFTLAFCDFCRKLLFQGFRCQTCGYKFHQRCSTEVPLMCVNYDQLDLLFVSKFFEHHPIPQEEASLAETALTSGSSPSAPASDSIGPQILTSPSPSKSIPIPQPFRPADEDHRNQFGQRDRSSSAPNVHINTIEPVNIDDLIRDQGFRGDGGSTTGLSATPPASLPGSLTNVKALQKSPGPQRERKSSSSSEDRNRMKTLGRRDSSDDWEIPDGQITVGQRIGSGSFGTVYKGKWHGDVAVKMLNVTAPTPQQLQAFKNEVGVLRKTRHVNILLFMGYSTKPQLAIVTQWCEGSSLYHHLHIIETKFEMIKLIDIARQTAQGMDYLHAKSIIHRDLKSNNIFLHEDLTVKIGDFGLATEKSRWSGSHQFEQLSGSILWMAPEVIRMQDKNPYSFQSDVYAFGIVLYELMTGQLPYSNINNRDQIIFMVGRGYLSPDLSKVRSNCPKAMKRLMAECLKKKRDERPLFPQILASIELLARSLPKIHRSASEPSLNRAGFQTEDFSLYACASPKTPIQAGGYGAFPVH
T1 sequence (Q96SW2 whole entry): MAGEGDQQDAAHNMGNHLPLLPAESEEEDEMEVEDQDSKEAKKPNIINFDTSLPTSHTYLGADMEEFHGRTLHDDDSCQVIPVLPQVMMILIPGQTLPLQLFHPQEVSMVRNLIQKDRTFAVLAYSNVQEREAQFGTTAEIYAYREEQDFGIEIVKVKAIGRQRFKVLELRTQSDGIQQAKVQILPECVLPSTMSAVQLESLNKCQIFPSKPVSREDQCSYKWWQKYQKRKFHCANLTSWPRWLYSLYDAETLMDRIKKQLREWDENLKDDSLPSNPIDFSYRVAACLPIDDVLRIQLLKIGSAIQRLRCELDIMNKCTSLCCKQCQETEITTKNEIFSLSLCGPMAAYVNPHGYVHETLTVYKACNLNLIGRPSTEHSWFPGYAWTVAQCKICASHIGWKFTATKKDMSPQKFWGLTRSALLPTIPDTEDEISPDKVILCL
T1 sequence (Q16531 whole entry partner): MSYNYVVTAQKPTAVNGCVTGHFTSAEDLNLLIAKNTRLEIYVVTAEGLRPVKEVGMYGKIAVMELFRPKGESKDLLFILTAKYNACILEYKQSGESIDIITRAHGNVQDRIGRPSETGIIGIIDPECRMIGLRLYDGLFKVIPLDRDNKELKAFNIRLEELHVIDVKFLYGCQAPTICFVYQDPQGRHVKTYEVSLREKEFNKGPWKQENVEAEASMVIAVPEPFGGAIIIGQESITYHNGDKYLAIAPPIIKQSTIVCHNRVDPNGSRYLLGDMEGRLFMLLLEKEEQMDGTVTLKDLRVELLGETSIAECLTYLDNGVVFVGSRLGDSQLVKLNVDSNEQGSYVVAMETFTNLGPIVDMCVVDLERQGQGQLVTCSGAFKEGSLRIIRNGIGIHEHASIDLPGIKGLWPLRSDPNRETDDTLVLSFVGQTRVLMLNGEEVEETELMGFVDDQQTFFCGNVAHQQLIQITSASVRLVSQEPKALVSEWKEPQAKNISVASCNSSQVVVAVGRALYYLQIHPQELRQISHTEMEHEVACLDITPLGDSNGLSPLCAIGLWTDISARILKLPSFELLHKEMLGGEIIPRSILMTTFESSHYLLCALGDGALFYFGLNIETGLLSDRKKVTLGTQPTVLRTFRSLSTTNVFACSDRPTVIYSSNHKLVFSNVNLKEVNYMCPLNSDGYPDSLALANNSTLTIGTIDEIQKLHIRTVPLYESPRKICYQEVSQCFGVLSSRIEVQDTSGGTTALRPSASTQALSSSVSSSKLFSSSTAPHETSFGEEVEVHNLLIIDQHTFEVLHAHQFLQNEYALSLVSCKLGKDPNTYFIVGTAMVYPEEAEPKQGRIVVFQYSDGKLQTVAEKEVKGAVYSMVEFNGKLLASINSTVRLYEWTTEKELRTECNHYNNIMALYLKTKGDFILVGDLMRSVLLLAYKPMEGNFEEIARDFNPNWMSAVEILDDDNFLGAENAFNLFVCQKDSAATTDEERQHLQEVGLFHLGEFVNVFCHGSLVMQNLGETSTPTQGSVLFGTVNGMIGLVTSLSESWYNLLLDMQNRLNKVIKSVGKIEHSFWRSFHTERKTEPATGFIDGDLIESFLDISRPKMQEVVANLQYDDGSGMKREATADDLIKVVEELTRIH

In general, Emax refers to the maximal effect, on the per cent scale that the assay sets. As to `CCN(C)S(=O)(=O)Nc1ccc(F)c(Oc2ccc3ncn([C@H]4COC5(CCN(C6CCC(c7ccc(N[C@H]8CCC(=O)NC8=O)cc7F)CC6)CC5)C4)c(=O)c3c2)c1C#N` (single isomer, unassigned) [Compound 3], the DC50 was under 1 µM under setting [1]; under 1 µM under setting [2]; under 1 µM under setting [4]; under 1 µM under setting [5]; under 1 µM under setting [7]; under 1 µM under setting [9]. Moreover, the maximal effect (Emax) was under 50% under setting [3], under 50% under setting [6] and under 50% under setting [8].

For `CCN(C)S(=O)(=O)Nc1ccc(F)c(Oc2ccc3ncn([C@H]4COC5(CCN(C6CCC(c7ccc(N[C@@H]8CCC(=O)NC8=O)cc7F)CC6)CC5)C4)c(=O)c3c2)c1C#N` (single isomer, unassigned) [Compound 4], the DC50 runs as follows: under setting [1], under 1 µM; under setting [2], under 1 µM; under setting [4], under 1 µM; under setting [5], under 1 µM; under setting [7], under 1 µM; under setting [9], under 1 µM. In addition, the maximal response (Emax) is under 50% under setting [3], under 50% under setting [6] and under 50% under setting [8].

Turning to `CCN(C)S(=O)(=O)Nc1ccc(F)c(Oc2ccc3ncn(C4CC5(CCN(C6CCC(c7ccc(NC8CCC(=O)NC8=O)cc7F)CC6)CC5)C4)c(=O)c3c2)c1C#N` (single isomer, unassigned) [Compound 6, 6-[2-cyano-3-[[ethyl(methyl)sulfamoyl]amino]-6-fluoro-phenoxy]-3-[7-[4-[4-[(2,6-dioxo-3-piperidyl)amino]-2-fluoro-phenyl]cyclohexyl]-7-azaspiro[3.5]nonan-2-yl]-4-oxo-quinazoline], the DC50 under setting [1] is under 1 µM; the DC50 under setting [2] is under 1 µM; the DC50 under setting [4] was under 1 µM; the DC50 under setting [5] was under 1 µM; the DC50 under setting [7] is under 1 µM; the DC50 under setting [9] is under 1 µM. The maximum response (Emax) by setting is: under setting [3], under 50%; under setting [6], under 50%; under setting [8], under 50%.

With `CCN(C)S(=O)(=O)Nc1ccc(F)c(Oc2ccc3ncn(C4CC5(CCN(C6CCC(c7cc8c(cc7F)c(N7CCC(=O)NC7=O)nn8C)CC6)CC5)C4)c(=O)c3c2)c1C#N` (single isomer, unassigned) [Compound 8, 6-[2-cyano-3-[[ethyl(methyl)sulfamoyl]amino]-6-fluoro-phenoxy]-3-[7-[4-[3-(2,4-dioxohexahydropyrimidin-1-yl)-5-fluoro-1-methyl-indazol-6-yl]cyclohexyl]-7-azaspiro[3.5]nonan-2-yl]-4-oxo-quinazoline], the DC50 under setting [1] was under 1 µM; the DC50 under setting [2] is under 1 µM; the DC50 under setting [4] is under 1 µM; the DC50 under setting [5] is under 1 µM; the DC50 under setting [7] was under 1 µM; the DC50 under setting [9] is under 1 µM. Moreover, the Emax under setting [3] is under 50%. Under setting [10], the “HiBiT-Degradation A375.10 BRAF 6 hours Emax” value is “*** (<=50%)”. In addition, the “HiBiT-Degradation A375.10 BRAF 24 hours Emax” value under setting [11] was “*** (<=50%)”.

In the case of `CCN(C)S(=O)(=O)Nc1ccc(F)c(Oc2ccc3ncn([C@@H]4C[C@@H]5CN(C6CCC(c7ccc(NC8CCC(=O)NC8=O)cc7F)CC6)C[C@@H]5C4)c(=O)c3c2)c1C#N` (single isomer, unassigned) [Compound 21], the DC50 was under 1 µM under setting [1]; under 1 µM under setting [2]; under 1 µM under setting [4]; under 1 µM under setting [5]; under 1 µM under setting [7]; under 1 µM under setting [9]. Besides, the maximal effect (Emax) is, setting by setting: under setting [3], under 50%; under setting [6], under 50%; under setting [8], under 50%.

Take `CCN(C)S(=O)(=O)Nc1ccc(F)c(Oc2ccc3ncn([C@H]4CCC5(CCN(C6CCC(c7ccc(NC8CCC(=O)NC8=O)cc7F)CC6)CC5)C4)c(=O)c3c2)c1C#N` (single isomer, unassigned) [Compound 24]: the DC50 was under 1 µM under setting [1]; under 1 µM under setting [2]; under 1 µM under setting [4]; under 1 µM under setting [5]; under 1 µM under setting [7]; under 1 µM under setting [9]. Besides, the Emax runs as follows: under setting [3], under 50%; under setting [6], under 50%; under setting [8], under 50%.

As for `CCN(C)S(=O)(=O)Nc1ccc(F)c(Oc2ccc3ncn([C@H]4COC5(CCN(C6CCC(c7cc8c(cc7F)c(N7CCC(=O)NC7=O)nn8C)CC6F)CC5)C4)c(=O)c3c2)c1C#N` (single isomer, unassigned) [Compound 28], the DC50 under setting [1] was under 1 µM; the DC50 under setting [2] is under 1 µM; the DC50 under setting [4] was under 1 µM; the DC50 under setting [5] is under 1 µM; the DC50 under setting [7] was under 1 µM; the DC50 under setting [9] is under 1 µM. Besides, the Emax is under 50% under setting [6], under 50% under setting [8] and under 50% under setting [12].

`CCN(C)S(=O)(=O)Nc1ccc(F)c(Oc2ccc3ncn([C@@H]4CCC5(CCN(C6CCC(c7cc8c(cc7F)c(N7CCC(=O)NC7=O)nn8C)CC6)CC5)C4)c(=O)c3c2)c1C#N` (single isomer, unassigned) [Compound 31]: the DC50 is under 1 µM under setting [1] and over 10 µM under setting [2]. In addition, the Emax under setting [12] lay within 50 to 90%.

In the case of `CCN(C)S(=O)(=O)Nc1ccc(F)c(Oc2ccc3ncn([C@H]4CCC5(CCN(C6CCC(c7cc8c(cc7F)c(N7CCC(=O)NC7=O)nn8C)CC6)CC5)C4)c(=O)c3c2)c1C#N` (single isomer, unassigned) [Compound 33], the DC50 is, setting by setting: under setting [1], under 1 µM; under setting [2], under 1 µM; under setting [4], under 1 µM; under setting [5], under 1 µM; under setting [7], under 1 µM; under setting [9], under 1 µM. For the same compound, the Emax under setting [6] was under 50%, the maximal effect (Emax) under setting [8] was under 50% and the Emax under setting [12] is under 50%.

As to `CCN(C)S(=O)(=O)Nc1ccc(F)c(Oc2ccc3ncn([C@H]4COC5(CCC(N6CCC(c7cc8c(cc7F)c(N7CCC(=O)NC7=O)nn8C)C(F)(F)C6)CC5)C4)c(=O)c3c2)c1C#N` (single isomer, unassigned) [Compound 38], the DC50 is under 1 µM under setting [1]; under 1 µM under setting [2]; under 1 µM under setting [4]; under 1 µM under setting [5]; under 1 µM under setting [7]; under 1 µM under setting [9]. The Emax by setting is: under setting [6], under 50%; under setting [8], under 50%; under setting [12], under 50%.

In the case of `CCN(C)S(=O)(=O)Nc1ccc(F)c(Oc2ccc3ncn([C@H]4COC5(CCC(N6CCC(c7cc8c(cc7F)c(N7CCC(=O)NC7=O)nn8C)C(F)(F)C6)CC5)C4)c(=O)c3c2)c1C#N` (single isomer, unassigned) [Compound 39], the “HiBiT-Degradation A375.10 BRAF 2 hours Emax” value was “*** (<=50%)”. Also, the DC50 under setting [1] is under 1 µM. For the same compound, the DC50 under setting [2] was under 1 µM. Under setting [4], the DC50 is under 1 µM. In addition, under setting [5], the DC50 is under 1 µM. The “HiBiT-Degradation A375.10 BRAF 6 hours Emax” value under setting [10] was “*** (<=50%)”. For the same compound, under setting [11], the “HiBiT-Degradation A375.10 BRAF 24 hours Emax” value is listed as “*** (<=50%)”. For the same compound, under setting [7], the DC50 is under 1 µM. For the same compound, under setting [9], the DC50 is under 1 µM.

On to `CCN(C)S(=O)(=O)Nc1ccc(F)c(Oc2ccc3ncn([C@H]4COC5(CCN(C6CCC(c7cc8c(cc7F)c(N7CCC(=O)NC7=O)nn8C)CC6)CC5)C4)c(=O)c3c2F)c1C#N` (single isomer, unassigned) [Compound 41], for which the DC50 is under 1 µM under setting [1]; under 1 µM under setting [2]; under 1 µM under setting [4]; under 1 µM under setting [5]; under 1 µM under setting [7]; under 1 µM under setting [9]. Besides, the Emax by setting is: under setting [6], under 50%; under setting [8], under 50%; under setting [12], under 50%.
